US10227586B2, “Genome-originated artificial ncRNA expression library and method of preparing the same” (KOREA ADVANCED INSTITUTE OF SCIENCE AND TECHNOLOGY, priority 2016, dated 2019)
Values after ≈ are worked out from the molar mass of the structure shown.

Key:
E. coli YHP05 strain = assay: MIC measurement to cinnamaldehyde of E. coli; assay type: cell-based; settings: LB liquid medium, 37° C., 16 hrs
E. coli YHP05 = assay: Screening of transformed E. coli living in cinnamaldehyde MIC (artificial ncRNA expression); assay type: cell-based; settings: transformed E. coli YHP05, LB medium comprising 350 ug/ml cinnamaldehyde, 1 mM IPTG, 16 hrs
Experimental: In order to develop an artificial ncRNA to make E. coli survived at 300 ug/ml of cinnamaldehyde concentration, E. coli YHP05 was transformed by the plasmid library which can express genome-originated artificial ncRNA constructed in the Example 3-5, and after transformed ˜500,000 colonies were cultured for 16 hrs, they were diluted to 1:100 and cultured for 16 hrs again in a LB medium comprising 350 ug/ml cinnamaldehyde, 1 mM IPTG, and the result was shown in FIG. 6 and table 6.

E. coli MG1655 strain = assay: microbe, parasite or virus in culture; settings: Escherichia coli, MG1655, 16 h, read-out: phenol concentration at which growth was totally inhibited (MIC)

O=CC=Cc1ccccc1 [cinnamaldehyde]
OD600 (E. coli YHP05 strain; 100 ug/ml cinnamaldehyde): 3.08 | OD600 (E. coli YHP05 strain; 150 ug/ml cinnamaldehyde): 2.74 | OD600 (E. coli YHP05 strain; 200 ug/ml cinnamaldehyde): 2.25 | OD600 (E. coli YHP05 strain; 250 ug/ml cinnamaldehyde): 0.341 | OD600 (E. coli YHP05 strain; 300 ug/ml cinnamaldehyde): 0.091 | OD600 (E. coli YHP05 strain; 400 ug/ml cinnamaldehyde): 0.083 | OD600 (E. coli YHP05 strain; 500 ug/ml cinnamaldehyde): 0.062 | MIC (E. coli YHP05 strain; Escherichia coli, YHP05STRAIN, read-out: cinnamaldehyde concentration at which cells were not grown (MIC)): 300 mg/L (≈ 2270 µM)

clone 8: artificial ncRNA improving resistance to cinnamaldehyde, genome insert of SEQ ID NO: 19 (DNA AATCCCTCAATGATGCCTGGAATCGCTCTTTTA; expressed or natural sequence)
OD600 (E. coli YHP05): 0.32

clone 9: artificial ncRNA improving resistance to cinnamaldehyde, genome insert of SEQ ID NO: 20 (DNA GGCGCTGCATCCGCGTTATAGCCGCGCCCAGTATGACCGGGTAATGGA; expressed or natural sequence)
OD600 (E. coli YHP05): 0.2403

Oc1ccccc1 [phenol]
MIC (E. coli MG1655 strain): 20 mM (≈ 1880 µg/mL)

B1: clone 6: artificial ncRNA improving resistance to cinnamaldehyde, genome insert of SEQ ID NO: 17 (nucleic acid)
DNA: TATTCATTGCTTCTACCCGTGCCTCGCTTTCTGTATTACGAAATTGTCCCAACACATGTGCCAGCCGATAAAAACCCAC
modifications: expressed or natural sequence
OD600 (E. coli YHP05): 0.2757

B2: clone 7: artificial ncRNA improving resistance to cinnamaldehyde, genome insert of SEQ ID NO: 18 (nucleic acid)
DNA: AACGCAGGGCGTTCGAAAGCAGGTTGCTTAGCGCCCGACGCAGCATCAGCGGATCGCCCGCGACCTGACACTTGTCGCCAACAAACCGCAACTCCACGCCGCGATCTTCCGCTAACGCCTCGAAAAAATCGAACACTTTGCCGACTTCATCCGCCAG
modifications: cinnamic aldehyde_reg_06
OD600 (E. coli YHP05): 0.411
